According to publication PMC8014892, “Permeation Studies across Symmetric and Asymmetric Membranes in Microdroplet Arrays” (Analytical Chemistry, 2021):
Entries after “also recorded” stand apart in the source; their conditions may differ. Read-outs that look alike come from different tables or passages of the source.

Legend:
[1] = cited from earlier work
[2] = Permeation over multiple compartments (one donor, four acceptor droplets in series); assay type: in vitro ADME; conditions: for Papp at 50 µM: not told
Procedure: For several acceptor droplets in series, the numerical solutions of a differential equation system according to eqs 5 to 7 were fitted to the normalized fluorescence data of donor and acceptor droplets. The solutions of the differential equation system and the fitting were performed with the Matlab (version 2018a, Mathworks) functions ode15s, fmincon (minimizing the sum of squared residues), and MultiStart. [drawing 5] 5 [drawing 6] 6 [drawing 7] 7
W(n) is the fluorescence in the water phase of droplet n, k is the mass transfer rate constant (the fit parameter), and N is the total number of donor and acceptor droplets. The expression N > 2 equals 1 if N > 2 and 0 if N ≤ 2, and n < N equals 1 if n < N and 0 if n ≥ N.
Our platform allows for spotting droplet lines, instead of just pairs. With this, we can monitor how permeation and diffusion of compounds progress over several compartments. For creation of multiple droplets, connected via DIBs, we used a modified glass plate, where cavities were created in lines. Several fluorophore-free acceptor droplets were deposited in this line accordingly. The last droplet contained fluorescein, which permeates over the multiple compartments. […] Permeation at pH 7.4 was slower, which was expected from the experiments with the droplet pairs and from the ionization state of fluorescein (Supporting Information, Figure S11). The Papp,fit at pH 7.4 was (19.01 ± 1.16) × 10^–6 cm/s, higher than determined with the droplet pairs at pH 7.0 (7.05 ± 0.42) × 10^–6 cm/s. […] The lag phase observed at pH 7.0 (Supporting Information Figure S5) has a higher impact on the fit parameters in the assay with only two droplets (reducing the apparent rate constants) than with several droplets in series.

[3] = Permeation across symmetric 100% DOPC DIBs in droplet pairs, fluorescence microscopy; assay type: in vitro ADME; conditions: for Papp at 50 µM: not told, droplet pairs, N = 27; for Papp at 50 µM / kad / kda: acceptor 100% DOPC; for Papp at 50 µM / Permeation across the DIB (observation in words): 37 °C; for Permeation across the DIB (observation in words): pH 6.0, 100% DOPC DIBs, calcein observed for 2900 minutes
Procedure: The lipid-out approach was used to add phospholipids to the water/oil interface, i.e., lipids were dissolved in the oil phase. We purchased 1,2-dioleoyl-sn-glycero-3-phosphocholine (DOPC) and 1,2-dioleoyl-sn-glycero-3-phospho-L-serine (DOPS) as solutions in chloroform from Avanti Polar Lipids (Alabaster, AL, U.S.A.). We placed the required lipids in pear-shaped flasks and removed the chloroform with a rotary evaporator (Büchi Labortechnik AG, Flawil, Switzerland) forming a film. The lipid film was dissolved in a 1:1 (v/v) mix of hexadecane (reagent plus grade, Sigma–Aldrich) and squalane (Sigma–Aldrich) in an ultrasonication bath at 50 °C for ∼30 min. The final phospholipid concentration in oil was 0.625 mM for donor droplets and 1.25 mM for acceptor droplets.
We used either 100% DOPC or 30% DOPC and 70% DOPS mixtures (mole percentage). We filtrated the phospholipid-oil solution before use (0.45 μm pore size, RC 4 Male Luer Slip Minisart filters, Huberlab, Switzerland).
All aqueous solutions were prepared in LC–MS grade water (Fisher Scientific, Loughborough, U.K.). We used as buffers 20 mM 2-morpholinoethanesulfonic acid (MES, pH 6.0, Alfa Aesar), 20 mM phosphate buffer (pH 7.0, Acros Organics), 50 mM 4-(2-hydroxyethyl)-1-piperazineethanesulfonic acid (HEPES, pH 7.4, gibco, Paisley, U.K.), or 20 mM tris(hydroxymethyl)aminomethane (Tris, pH 8.0, VWR). […] PEG4-NBD was synthesized from succinimidyl 6-(N-(7-nitrobenz-2-oxa-1,3-diazol-4-yl)amino)hexanoate (NBD NHS-ester, Molecular Probes Life Technologies, Eugene, OR, U.S.A.) and amine-terminated poly(ethylene glycol)-4 alcohol (Amino-PEG4-OH, Quanta Biodesign, Plain City, OH, U.S.A.).[26] A 1:1 molar ratio of the NBD NHS-ester and Amino-PEG4-OH was reacted in a 10:1 (v/v) solution of chloroform (Sigma–Aldrich) and triethylamine (Brenntag Schweizerhall, Basel, Switzerland). The reaction was held at 45 °C for 2 h, followed by 22 °C for 12 h. Afterward, the reaction products were separated with a preparative liquid chromatography system (Prep 150 LC system, Waters). The mass of the product PEG4-NBD was confirmed with an LC–MS system (Ultimate 3000 MSQ, Dionex).
We placed the microarray plate in a removable temperature-controlled holder (T = 37 °C) with a transparent bottom, which was mounted on a motorized XY stage (HLD117, Prior) of an inverted fluorescence microscope (Olympus IX73). We carried out the experiments in an oil bath to reduce droplet evaporation. The plate holder was filled with ∼4 mL of 1:1 (v/v) hexadecane:squalane without phospholipids and 50 μL of water in all four edges to reduce droplet shrinkage. We used a self-made microfluidic T-junction device made of polycarbonate (PC) to generate droplets of ∼25 nL by continuously injecting the aqueous phase (flow rate: 0.5 μL/min) into the immiscible oil phase (flow rate: 2 μL/min). The droplets were transported through a capillary onto the microarray plate. In this time, the phospholipids in the oil aligned along the water/oil interface and formed a monolayer.[27],[28] We mounted the end of the capillary on a motorized Z stage (M-403.2PD, Physik Instrumente, Karlsruhe, Germany). The generated droplets were detected in the capillary holder with a custom-made optical droplet detection system.[22] This was utilized to selectively deposit a single droplet per predefined position by synchronizing droplet generation and capillary and microarray movements. All components of the microscope and the capillary were controlled by the software YouScope for automated microscopy (R2018, v2.1.0).[29]
Fluorescence and bright-field pictures were recorded using a light source (Lumen 300, Prior and TH4-200, Olympus) and a complementary metal oxide semiconductor (CMOS) camera (Zyla 4.2, Andor) connected to the Olympus IX73 microscope. To track fluorescein, calcein, and PEG4-NBD, a blue excitation filter set (exciter HQ470/40x, dichroic 500dcxr BS, and emitter E515lpv2; Chroma Technology Corp, Bellows Falls, VT, U.S.A.) was used. […]

[4] = Label-free permeation analysis of droplet pairs by LC-MS; assay type: in vitro ADME; conditions: not told, pH 6, pH 6.0, LC-MS, N = 4
Procedure: For subsequent LC–MS analysis, we used a recently developed protocol to split the droplet pairs.[24] The capillary used before for spotting of droplets was flushed with hexadecane/squalane (1:1) and placed between two connecting droplets to separate the droplet pairs. To extract individual droplets, the capillary was flushed with fluorinated oil (HFE-7500, 3 M Novec, Hadfield, U.K.) and connected to a 50 μL glass syringe (Hamilton, Switzerland). The center of the capillary was lowered to a height where it slightly squeezed the droplet. Subsequently, by slowly pulling the glass syringe, the droplet was aspirated. Afterward, the capillary was moved over a small tube (TreffLab Degersheim, Switzerland), and the aspirated droplet was ejected. […]
The sample was analyzed in a 1260 II Infinity LC Quaternary system coupled to a single quadrupole atmospheric pressure ionization-electrospray (API-ES) G6130B mass spectrometer (Agilent). […] All analytes were detected with selected ion monitoring (SIM) in a positive mode. […]
Equations 1 and 2 were fitted to the data with OriginPro. […] Data from every droplet pair were individually fitted and evaluated. […] We further approximated that the area of the droplet interface bilayer is circular,[32] and we calculated the area (A) for the individual droplet pairs via the measured droplet interface bilayer diameter from the bright-field images (as indicated in Table S1). […]

[5] = Permeation across symmetric and asymmetric DIBs containing 30% DOPC 70% DOPS, droplet pairs, fluorescence microscopy; assay type: in vitro ADME; conditions: not told
Procedure: We placed the microarray plate in a removable temperature-controlled holder (T = 37 °C) with a transparent bottom, which was mounted on a motorized XY stage (HLD117, Prior) of an inverted fluorescence microscope (Olympus IX73). We carried out the experiments in an oil bath to reduce droplet evaporation. […] The generated droplets were detected in the capillary holder with a custom-made optical droplet detection system.[22] […]
Fluorescence and bright-field pictures were recorded using a light source (Lumen 300, Prior and TH4-200, Olympus) and a complementary metal oxide semiconductor (CMOS) camera (Zyla 4.2, Andor) connected to the Olympus IX73 microscope. […]
The recorded fluorescence signals were evaluated using Fiji[30] and OriginPro (2019, 9.6, OriginLab Corporation). First, we subtracted the background fluorescence for data evaluation. In a next step, we normalized the fluorescence to compensate for potential leakage into the oil phase, membrane partitioning, shrinkage of droplets, or fluorescence bleaching. For the normalization, the sum of fluorescence of all droplets in the first image was set to 100%. […]

[6] = parameters: method as in PMID 19560324; conditions: calcein permeation across liposome membranes; cited from earlier work

O=C1OC2(c3ccc(O)cc3Oc3cc(O)ccc32)c2ccccc21 [fluorescein]
permeation constant ([1]; pH 6.4, Nisisako et al.): 60.0 ± 22.4 × 10^–6 cm/s
permeation constant ([1]; pH 7.4, Schlicht and Zagnoni): 2.01 ± 1.46 × 10^–6 cm/s
permeation constant ([1]; pH 7.5, Nisisako et al.): 5.1 ± 1.8 × 10^–6 cm/s
Papp at 50 µM ([2]; pH 6, one donor to four acceptor droplets, 100% DOPC, eqs 5–7 and 3, N = 12 droplet networks): 200 ± 9.73 ×10⁻⁶ cm/s
Papp at 50 µM ([2]; pH 7.4, one donor to four acceptor droplets, eqs 5–7 and 3): 19 ± 1.16 ×10⁻⁶ cm/s
Time until equilibrium was reached in all five droplets ([2]; pH 6, five droplets in series): approximately 30 min
Papp at 50 µM ([3]; pH 6, donor 100% DOPC): 193 ± 17.8 ×10⁻⁶ cm/s
Papp at 50 µM ([3]; pH 7, donor 100% DOPC): 7.05 ± 0.42 ×10⁻⁶ cm/s
Papp at 50 µM ([3]; pH 8, donor 100% DOPC): 1.05 ± 0.06 ×10⁻⁶ cm/s
Permeation across the DIB (observation in words) [3]: permeated across the DIB
kad ([3]; pH 6, donor 100% DOPC): 4046.0 × 10-6 (1/s)
kda ([3]; pH 6, donor 100% DOPC): 4046.0 × 10-6 (1/s)
kad ([3]; pH 7, donor 100% DOPC): 145.0 × 10-6 (1/s)
kda ([3]; pH 7, donor 100% DOPC): 145.0 × 10-6 (1/s)
kad ([3]; pH 8, donor 100% DOPC): 20.3 × 10-6 (1/s)
kda ([3]; pH 8, donor 100% DOPC): 20.3 × 10-6 (1/s)

CC/N=c1\cc2oc3cc(NCC)c(C)cc3c(-c3ccccc3C(=O)OCC)c-2cc1C [rhodamine 6G]
Papp at 50 µM ([4]; eq 3, fit of all data, read-out: Papp.fit (MS)): 6.28 ± 0.68 ×10⁻⁶ cm/s
Papp at 50 µM ([4]; eq 4, sink condition, first two data points, read-out: Papp.sink (MS)): 9.42 ± 2.17 ×10⁻⁶ cm/s
Papp at 50 µM ([5]; pH 6, pH 6, donor 30% DOPC 70% DOPS, acceptor 30% DOPC 70% DOPS (symmetric)): 12.1 ×10⁻⁶ cm/s
Papp at 50 µM ([5]; pH 6, pH 6, donor 30% DOPC 70% DOPS, acceptor 100% DOPC (asymmetric)): 19.6 ×10⁻⁶ cm/s
Papp at 50 µM ([5]; pH 6, pH 6, donor 100% DOPC, acceptor 30% DOPC 70% DOPS (asymmetric)): 6.56 ×10⁻⁶ cm/s
Papp at 50 µM ([3]; pH 6, donor 100% DOPC): 10.4 ×10⁻⁶ cm/s
kad ([3]; pH 6, donor 100% DOPC): 166.8 × 10-6 (1/s)
kda ([3]; pH 6, donor 100% DOPC): 166.8 × 10-6 (1/s)

O=C(O)CN(CC(=O)O)Cc1cc2c(cc1O)Oc1cc(O)c(CN(CC(=O)O)CC(=O)O)cc1C21OC(=O)c2ccccc21 [calcein]
permeability coefficients [6]: 10^–10 to 10^–11 cm/s
Permeation across the DIB (observation in words) [3]: no permeation was observed
Permeation across the DIB (observation in words) ([3]; listed as Calcein): did not permeate; also recorded: No permeation observed
